According to ChEMBL document CHEMBL4828725 (Eur J Med Chem, 2021):

Tests used:
[1] = Inhibition of rice alpha-glucosidase using p-nitrophenyl glycoside as substrate assessed as release of p-nitrophenol measured by spectrometric assay; design: species or system Oryza sativa
[2] = Inhibition of rat intestinal maltase using maltose as substrate assessed as release of D-glucose measured by spectrometric assay
[3] = Inhibition of almond beta-glucosidase using p-nitrophenyl glycoside as substrate assessed as release of p-nitrophenol measured by spectrometric assay; design: species or system Prunus dulcis
[4] = Inhibition of bovine liver beta-glucosidase using p-nitrophenyl glycoside as substrate assessed as release of p-nitrophenol measured by spectrometric assay; design: species or system Bos taurus
Alpha-galactosidase = Alpha-galactosidase (Coffea arabica, UniProt Q42656); assay: Inhibition of coffee beans alpha-galactosidase using p-nitrophenyl glycoside as substrate assessed as release of p-nitrophenol measured by spectrometric assay
Sequence of Alpha-galactosidase (Q42656 whole entry): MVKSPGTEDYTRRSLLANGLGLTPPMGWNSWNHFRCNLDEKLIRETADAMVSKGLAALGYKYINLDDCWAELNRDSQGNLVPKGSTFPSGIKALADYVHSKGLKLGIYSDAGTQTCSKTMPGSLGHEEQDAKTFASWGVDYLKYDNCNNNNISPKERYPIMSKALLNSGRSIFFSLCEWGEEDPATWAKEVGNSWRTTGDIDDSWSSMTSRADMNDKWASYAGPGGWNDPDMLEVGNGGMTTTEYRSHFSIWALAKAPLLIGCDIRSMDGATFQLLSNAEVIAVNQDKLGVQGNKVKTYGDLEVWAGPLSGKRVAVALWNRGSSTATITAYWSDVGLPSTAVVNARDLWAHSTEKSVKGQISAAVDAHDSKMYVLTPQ

[5] = Inhibition of bovine liver beta-galactosidase using p-nitrophenyl glycoside as substrate assessed as release of p-nitrophenol measured by spectrometric assay; assay type: tissue-based, Bos taurus
[6] = Inhibition of jack bean alpha-mannosidase using p-nitrophenyl glycoside as substrate assessed as release of p-nitrophenol measured by spectrometric assay; design: species or system Canavalia ensiformis
[7] = Inhibition of snail beta-mannosidase using p-nitrophenyl glycoside as substrate assessed as release of p-nitrophenol measured by spectrometric assay; design: species or system Helix pomatia
[8] = biological target: T1, Tissue alpha-L-fucosidase (Bos taurus, UniProt Q2KIM0); assay: Inhibition of bovine kidney alpha-L-fucosidase using p-nitrophenyl glycoside as substrate assessed as release of p-nitrophenol measured by spectrometric assay
T1 sequence (Q2KIM0 whole entry): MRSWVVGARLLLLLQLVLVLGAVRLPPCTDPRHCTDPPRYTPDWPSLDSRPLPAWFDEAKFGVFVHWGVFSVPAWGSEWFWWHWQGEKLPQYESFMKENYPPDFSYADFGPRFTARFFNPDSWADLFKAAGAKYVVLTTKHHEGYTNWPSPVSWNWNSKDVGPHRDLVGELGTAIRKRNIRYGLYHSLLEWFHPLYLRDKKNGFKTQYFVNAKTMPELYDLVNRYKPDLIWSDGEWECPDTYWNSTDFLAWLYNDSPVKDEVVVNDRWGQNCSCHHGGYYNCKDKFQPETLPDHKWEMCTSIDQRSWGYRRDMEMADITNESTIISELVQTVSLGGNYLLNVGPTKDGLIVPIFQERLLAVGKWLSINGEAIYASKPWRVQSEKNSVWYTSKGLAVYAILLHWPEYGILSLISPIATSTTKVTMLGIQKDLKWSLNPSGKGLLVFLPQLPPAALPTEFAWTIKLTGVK

[9] = Inhibition of porcine kidney alpha-trehalase using p-nitrophenyl glycoside as substrate assessed as release of p-nitrophenol measured by spectrometric assay; design: species or system Sus scrofa
[10] = Inhibition of Aspergillus niger amyloglucosidase using p-nitrophenyl glycoside as substrate assessed as release of p-nitrophenol measured by spectrometric assay
[11] = Inhibition of Penicillium decumbens alpha-L-rhamnosidase using p-nitrophenyl glycoside as substrate assessed as release of p-nitrophenol measured by spectrometric assay
Beta-glucuronidase = Beta-glucuronidase (Escherichia coli (strain K12), UniProt P05804); assay: Inhibition of Escherichia coli beta-glucuronidase using p-nitrophenyl glycoside as substrate assessed as release of p-nitrophenol measured by spectrometric assay
Sequence of Beta-glucuronidase (P05804 whole entry): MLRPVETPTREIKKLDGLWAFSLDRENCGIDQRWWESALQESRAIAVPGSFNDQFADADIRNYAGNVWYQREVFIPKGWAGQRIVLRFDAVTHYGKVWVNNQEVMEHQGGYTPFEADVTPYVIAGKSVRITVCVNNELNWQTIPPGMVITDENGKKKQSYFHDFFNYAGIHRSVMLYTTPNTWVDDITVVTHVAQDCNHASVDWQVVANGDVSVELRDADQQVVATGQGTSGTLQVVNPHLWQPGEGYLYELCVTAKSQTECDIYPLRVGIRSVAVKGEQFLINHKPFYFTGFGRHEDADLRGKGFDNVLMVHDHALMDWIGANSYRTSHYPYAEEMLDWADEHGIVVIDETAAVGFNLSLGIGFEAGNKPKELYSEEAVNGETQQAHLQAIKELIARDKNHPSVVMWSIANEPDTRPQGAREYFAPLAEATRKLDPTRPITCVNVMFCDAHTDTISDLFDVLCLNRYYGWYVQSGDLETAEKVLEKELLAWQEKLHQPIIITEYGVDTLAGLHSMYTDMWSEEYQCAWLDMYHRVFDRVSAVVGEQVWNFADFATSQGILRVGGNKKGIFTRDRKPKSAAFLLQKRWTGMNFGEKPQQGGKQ

[12] = biological target: T2, Sucrase-isomaltase, intestinal (Rattus norvegicus, UniProt P23739); assay: Inhibition of rat intestinal sucrase using p-nitrophenyl glycoside as substrate assessed as release of p-nitrophenol measured by spectrometric assay; settings: read-out: IC50
T2 sequence (P23739 1-1013 limits assumed): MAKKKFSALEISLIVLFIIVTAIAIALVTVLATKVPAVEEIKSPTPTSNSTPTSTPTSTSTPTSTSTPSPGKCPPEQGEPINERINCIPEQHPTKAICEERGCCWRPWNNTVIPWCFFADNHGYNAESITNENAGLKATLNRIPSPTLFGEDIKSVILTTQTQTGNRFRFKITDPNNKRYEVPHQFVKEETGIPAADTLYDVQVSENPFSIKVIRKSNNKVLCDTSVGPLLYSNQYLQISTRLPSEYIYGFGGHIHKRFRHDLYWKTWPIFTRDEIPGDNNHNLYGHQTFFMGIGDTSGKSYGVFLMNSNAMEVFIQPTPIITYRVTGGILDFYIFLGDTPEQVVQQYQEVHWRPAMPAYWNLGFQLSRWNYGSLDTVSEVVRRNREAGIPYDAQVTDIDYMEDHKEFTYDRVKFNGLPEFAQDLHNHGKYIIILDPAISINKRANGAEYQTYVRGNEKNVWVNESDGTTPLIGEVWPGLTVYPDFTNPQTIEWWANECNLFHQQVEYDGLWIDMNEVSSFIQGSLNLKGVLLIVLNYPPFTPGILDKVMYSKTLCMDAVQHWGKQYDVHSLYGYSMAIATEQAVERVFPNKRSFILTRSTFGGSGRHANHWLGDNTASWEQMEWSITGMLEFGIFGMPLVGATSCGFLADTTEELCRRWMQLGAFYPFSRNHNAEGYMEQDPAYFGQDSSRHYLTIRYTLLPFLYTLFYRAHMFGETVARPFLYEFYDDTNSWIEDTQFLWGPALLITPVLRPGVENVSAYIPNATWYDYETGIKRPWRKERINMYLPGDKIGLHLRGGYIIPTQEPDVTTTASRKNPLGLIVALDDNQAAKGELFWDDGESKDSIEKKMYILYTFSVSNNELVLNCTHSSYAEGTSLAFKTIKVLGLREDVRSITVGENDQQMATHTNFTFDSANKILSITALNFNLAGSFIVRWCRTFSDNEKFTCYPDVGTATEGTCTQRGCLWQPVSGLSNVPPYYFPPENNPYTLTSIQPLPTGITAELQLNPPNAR
T2 sequence (P23739 1014-1841 limits assumed): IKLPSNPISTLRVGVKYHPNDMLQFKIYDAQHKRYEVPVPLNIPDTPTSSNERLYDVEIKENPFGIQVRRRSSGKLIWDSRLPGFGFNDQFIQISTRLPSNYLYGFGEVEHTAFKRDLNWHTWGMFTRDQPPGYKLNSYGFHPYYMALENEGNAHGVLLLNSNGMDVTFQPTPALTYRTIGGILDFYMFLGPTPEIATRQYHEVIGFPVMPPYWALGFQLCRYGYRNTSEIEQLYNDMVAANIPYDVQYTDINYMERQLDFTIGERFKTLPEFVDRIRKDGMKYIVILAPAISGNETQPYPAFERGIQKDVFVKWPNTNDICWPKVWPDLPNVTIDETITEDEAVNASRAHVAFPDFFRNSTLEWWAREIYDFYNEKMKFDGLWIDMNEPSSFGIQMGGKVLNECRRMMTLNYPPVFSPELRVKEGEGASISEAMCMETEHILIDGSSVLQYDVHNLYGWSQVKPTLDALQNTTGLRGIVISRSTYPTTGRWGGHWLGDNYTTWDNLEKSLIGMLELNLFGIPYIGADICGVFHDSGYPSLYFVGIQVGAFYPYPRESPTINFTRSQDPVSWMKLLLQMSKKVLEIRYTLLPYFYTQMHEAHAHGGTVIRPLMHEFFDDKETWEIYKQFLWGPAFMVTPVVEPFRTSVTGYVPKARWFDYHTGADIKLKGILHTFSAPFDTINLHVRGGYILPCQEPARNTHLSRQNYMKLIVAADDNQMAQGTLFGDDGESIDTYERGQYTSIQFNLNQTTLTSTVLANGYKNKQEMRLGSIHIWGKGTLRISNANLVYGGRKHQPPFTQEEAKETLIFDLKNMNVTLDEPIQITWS

[13] = biological target: T2, Sucrase-isomaltase, intestinal; assay: Inhibition of rat intestinal isomaltase using p-nitrophenyl glycoside as substrate assessed as release of p-nitrophenol measured by spectrometric assay; settings: read-out: IC50
Prunus dulcis = assay: Inhibition of almond beta-glucosidase using p-nitrophenyl glycoside as substrate assessed as release of p-nitrophenol at 1000 uM measured by spectrometric assay relative to control
Bos taurus [14] = species on record: Bos taurus; assay: Inhibition of bovine liver beta-glucosidase using p-nitrophenyl glycoside as substrate assessed as release of p-nitrophenol at 1000 uM measured by spectrometric assay relative to control; assay type: tissue-based
Bos taurus [15] = species on record: Bos taurus; assay: Inhibition of bovine liver beta-galactosidase using p-nitrophenyl glycoside as substrate assessed as release of p-nitrophenol at 1000 uM measured by spectrometric assay relative to control
[16] = biological target: T3, Alpha-mannosidase (Canavalia ensiformis) (UniProt C0HJB3); assay: Inhibition of jack bean alpha-mannosidase using p-nitrophenyl glycoside as substrate assessed as release of p-nitrophenol at 1000 uM measured by spectrometric assay relative to control
T3 sequence (whole entry): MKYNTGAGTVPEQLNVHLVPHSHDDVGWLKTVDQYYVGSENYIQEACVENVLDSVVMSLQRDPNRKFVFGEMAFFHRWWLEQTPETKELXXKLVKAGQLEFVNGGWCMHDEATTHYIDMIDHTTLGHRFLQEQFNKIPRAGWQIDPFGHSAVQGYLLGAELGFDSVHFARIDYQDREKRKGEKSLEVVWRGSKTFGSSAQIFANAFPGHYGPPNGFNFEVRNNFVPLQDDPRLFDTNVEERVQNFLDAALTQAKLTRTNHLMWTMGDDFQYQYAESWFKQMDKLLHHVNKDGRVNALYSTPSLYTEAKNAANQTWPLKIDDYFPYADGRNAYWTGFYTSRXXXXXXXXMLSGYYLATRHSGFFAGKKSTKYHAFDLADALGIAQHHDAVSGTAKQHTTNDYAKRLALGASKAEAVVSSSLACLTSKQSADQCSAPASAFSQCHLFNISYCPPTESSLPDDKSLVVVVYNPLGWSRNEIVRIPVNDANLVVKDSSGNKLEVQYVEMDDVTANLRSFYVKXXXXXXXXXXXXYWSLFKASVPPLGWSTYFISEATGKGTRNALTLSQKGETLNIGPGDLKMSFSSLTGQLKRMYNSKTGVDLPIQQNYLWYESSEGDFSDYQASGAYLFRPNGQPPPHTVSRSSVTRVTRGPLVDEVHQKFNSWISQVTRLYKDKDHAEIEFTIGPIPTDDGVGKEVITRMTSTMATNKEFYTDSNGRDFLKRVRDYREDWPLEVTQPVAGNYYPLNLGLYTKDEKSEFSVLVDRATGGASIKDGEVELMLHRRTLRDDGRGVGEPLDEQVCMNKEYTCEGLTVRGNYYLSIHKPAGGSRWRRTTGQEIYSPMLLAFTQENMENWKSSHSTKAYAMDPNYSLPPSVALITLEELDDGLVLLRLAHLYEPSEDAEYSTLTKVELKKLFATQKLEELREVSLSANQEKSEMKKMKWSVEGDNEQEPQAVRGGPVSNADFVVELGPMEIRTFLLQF

Helix pomatia = assay: Inhibition of snail beta-mannosidase using p-nitrophenyl glycoside as substrate assessed as release of p-nitrophenol at 1000 uM measured by spectrometric assay relative to control
[17] = biological target: T4, Tissue alpha-L-fucosidase (Bos taurus) (UniProt Q2KIM0); assay: Inhibition of bovine kidney alpha-L-fucosidase using p-nitrophenyl glycoside as substrate assessed as release of p-nitrophenol at 1000 uM measured by spectrometric assay relative to control; assay type: tissue-based
T4 sequence (whole entry): T1 sequence (Q2KIM0 whole entry)

Sus scrofa = species on record: Sus scrofa; assay: Inhibition of porcine kidney alpha-trehalase using p-nitrophenyl glycoside as substrate assessed as release of p-nitrophenol at 1000 uM measured by spectrometric assay relative to control
Aspergillus niger = assay: Inhibition of Aspergillus niger amyloglucosidase using p-nitrophenyl glycoside as substrate assessed as release of p-nitrophenol at 1000 uM measured by spectrometric assay relative to control
Penicillium decumbens = assay: Inhibition of Penicillium decumbens alpha-L-rhamnosidase using p-nitrophenyl glycoside as substrate assessed as release of p-nitrophenol at 1000 uM measured by spectrometric assay relative to control
[18] = biological target: Beta-glucuronidase (Escherichia coli (strain K12)) (UniProt P05804); assay: Inhibition of Escherichia coli beta-glucuronidase using p-nitrophenyl glycoside as substrate assessed as release of p-nitrophenol at 1000 uM measured by spectrometric assay relative to control
Sequence of Beta-glucuronidase (Escherichia coli (strain K12)) (P05804 whole entry, looked up): as the sequence (P05804 whole entry) above

IC50 [2] [µM]	IC50 [3]	IC50 [4]	IC50 [6]	IC50 [7]	IC50 [8]	IC50 [9]	IC50 [10]	IC50 [11]	IC50 ([1]; read-out: IC50) [µM]	IC50 [12] [µM]	IC50 [13] [µM]	inhibition (Prunus dulcis) [%]	IC50 (Alpha-galactosidase; read-out: IC50) [µM]	inhibition [16] [%]	inhibition (Helix pomatia) [%]	inhibition [17] [%]	inhibition (Sus scrofa) [%]	inhibition (Aspergillus niger) [%]	inhibition (Penicillium decumbens) [%]	Compound	further results
0.023	Not Active	Not Active	Not Active	Not Active	Not Active	Not Active	Not Active	Not Active	0.068	0.23	0.7	18.8	83	5.5	4	12.4	10.6	0.83	0	CCCCC[C@]1(CO)NC[C@H](O)[C@@H](O)[C@@H]1O.Cl	inhibition (Bos taurus [14]): 8%; IC50 [5]: Not Active; inhibition (Bos taurus [15]): 16.1%; IC50 (Beta-glucuronidase): Not Active; inhibition [18]: 10.8%
0.036	Not Active	Not Active	Not Active	Not Active	Not Active	Not Active	Not Active	Not Active	0.05	0.23	0.55	36.3	109	17.3	8.5	45.9	12.9	12.2	0	CCCCCCC[C@]1(CO)NC[C@H](O)[C@@H](O)[C@@H]1O.Cl	inhibition (Bos taurus [14]): 20.5%; IC50 [5]: Not Active; inhibition (Bos taurus [15]): 29%; IC50 (Beta-glucuronidase; read-out: IC50): 28 µM
0.17	Not Active		Not Active	Not Active	Not Active	Not Active	Not Active	Not Active	0.14	0.56	2.6	36.6	58	6.6	16.5	10.3	33.5	17.1	16.3	CCCC[C@]1(CO)NC[C@H](O)[C@@H](O)[C@@H]1O.Cl	IC50 ([4]; read-out: IC50): 315 µM; IC50 ([5]; read-out: IC50): 127 µM; IC50 (Beta-glucuronidase; read-out: IC50): 679 µM
0.12	Not Active		Not Active	Not Active	Not Active		Not Active	Not Active	0.028	0.45	1.7	41.7	15	10.7	2.5	25.3		14.1	9.1	CCCCCCCCC[C@]1(CO)NC[C@H](O)[C@@H](O)[C@@H]1O.Cl	IC50 ([4]; read-out: IC50): 211 µM; IC50 ([5]; read-out: IC50): 68 µM; IC50 ([9]; read-out: IC50): 494 µM; IC50 (Beta-glucuronidase; read-out: IC50): 158 µM

Second part, the molecule before the results:

Compound	IC50 [2] [µM]	IC50 [3]	IC50 [4]	IC50 [6]	IC50 [7]	IC50 [8]	IC50 [9]	IC50 [10]	IC50 [11]	IC50 ([1]; read-out: IC50) [µM]	IC50 [12] [µM]	IC50 [13] [µM]	inhibition (Prunus dulcis) [%]	IC50 (Alpha-galactosidase; read-out: IC50) [µM]	inhibition [16] [%]	inhibition (Helix pomatia) [%]	inhibition [17] [%]	inhibition (Sus scrofa) [%]	inhibition (Aspergillus niger) [%]	inhibition (Penicillium decumbens) [%]	further results
OC[C@@H]1NC[C@H](O)[C@@H](O)[C@@H]1O	8.4	Not Active	Not Active	Not Active	Not Active	Not Active	Not Active	Not Active	Not Active												IC50 [1]: Not Active; IC50 (Alpha-galactosidase): Not Active; IC50 [5]: Not Active; IC50 (Beta-glucuronidase): Not Active
CCCCCCCCCC[C@]1(CO)NC[C@H](O)[C@@H](O)[C@@H]1O.Cl	0.12	Not Active		Not Active	Not Active	Not Active	Not Active	Not Active	Not Active	0.033	1.7	13	10	18	4.3	0	0.9	5.7	9.2	0	IC50 ([4]; read-out: IC50): 21 µM; IC50 (Beta-glucuronidase): Not Active; inhibition [18]: 24.4%
CCCCCCCCCCC[C@]1(CO)NC[C@H](O)[C@@H](O)[C@@H]1O.Cl	0.032	Not Active	Not Active	Not Active	Not Active	Not Active	Not Active	Not Active	Not Active	0.02	0.19	1.1	10	3.6	2.1	0	6.6	20.3	0	4.5	inhibition (Bos taurus [14]): 3.7%; IC50 ([5]; read-out: IC50): 70 µM; IC50 (Beta-glucuronidase): Not Active; inhibition [18]: 25.2%
